Results on 15 molecules are retold here after article PMC8308639, “Synthesis and Human Carbonic Anhydrase I, II, IX, and XII Inhibition Studies of Sulphonamides Incorporating Mono-, Bi- and Tricyclic Imide Moieties” (Pharmaceuticals, 2021).

One series is described as follows: Qualitative solubility. Format: physicochemical.
In a further series the target is hCA IX (Homo sapiens, UniProt Q16790). The experiment in a line: CA-catalysed CO2 hydration stopped-flow inhibition assay, hCA IX. Conditions: for Ki: stopped-flow CO2 hydration, mean ± standard error, three assays; for Selectivity Ratio A = hCA II/IX: ratio of Ki hCA II / Ki hCA IX.
Another series deals with hCA XII (Homo sapiens, UniProt O43570). In words: CA-catalysed CO2 hydration stopped-flow inhibition assay, hCA XII. Conditions: for Ki: stopped-flow CO2 hydration, mean ± standard error, three assays; for Selectivity Ratio B = hCA II/XII: ratio of Ki hCA II / Ki hCA XII.
The target of a further series is hCA II (Homo sapiens, UniProt P00918). The experiment in a line: CA-catalysed CO2 hydration stopped-flow inhibition assay, hCA II.
The target of another series is hCA I (Homo sapiens, UniProt P00915). The experiment in a line: CA-catalysed CO2 hydration stopped-flow inhibition assay, hCA I.
Setting [1] is: Ki (nM) hCA II, mean ± standard error, three assays.

Where a name gives a salt, the structure may show the parent alone. Read-outs that look alike come from different tables or passages of the source.

Chain of hCA I (P00915 whole entry): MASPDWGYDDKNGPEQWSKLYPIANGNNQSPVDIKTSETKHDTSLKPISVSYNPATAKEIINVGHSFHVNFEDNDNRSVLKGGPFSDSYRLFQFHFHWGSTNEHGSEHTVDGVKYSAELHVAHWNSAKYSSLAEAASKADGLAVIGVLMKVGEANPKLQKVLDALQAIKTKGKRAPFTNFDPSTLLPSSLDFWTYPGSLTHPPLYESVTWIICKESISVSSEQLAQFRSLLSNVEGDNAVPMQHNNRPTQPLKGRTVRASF
Chain of hCA XII (O43570 25-354): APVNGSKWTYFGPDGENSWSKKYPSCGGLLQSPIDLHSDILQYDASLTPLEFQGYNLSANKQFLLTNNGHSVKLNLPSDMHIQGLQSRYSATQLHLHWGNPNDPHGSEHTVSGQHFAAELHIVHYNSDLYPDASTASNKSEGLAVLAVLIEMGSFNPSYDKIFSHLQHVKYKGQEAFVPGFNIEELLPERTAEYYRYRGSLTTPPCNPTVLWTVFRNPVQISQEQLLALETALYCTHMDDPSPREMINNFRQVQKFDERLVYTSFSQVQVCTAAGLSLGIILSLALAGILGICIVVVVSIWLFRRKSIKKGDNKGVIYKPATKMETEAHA

`NS(=O)(=O)c1ccc(N2C(=O)c3c(Cl)c(Cl)c(Cl)c(Cl)c3C2=O)c(F)c1` [Compound 11, 3-fluoro-4-(4,5,6,7-tetrachloro-1,3-dioxoisoindolin-2-yl) benzenesulphonamide] yielded a melting point of 278 °C. Further, in “Qualitative solubility”, the solubility in water entry is listed as “insoluble”. Further, at hCA IX (Ki (nM) hCA IX), the Ki worked out at 88 ± 7 nM. On hCA XII (Ki (nM) hCA XII), this molecule showed an inhibition constant (Ki) of 14 ± 1 nM.

`NS(=O)(=O)c1ccc(CCN2C(=O)C=CC2=O)cc1` [Compound 2, 4-(2-(2,5-dioxo-2H-pyrrol-1(5H)-yl)ethyl)benzenesulphonamide] displayed a melting point of 210 °C. Further, in the series “Qualitative solubility”, the solubility in water entry is reported as “insoluble”. Also, the Ki at hCA IX (Ki (nM) hCA IX) was 7420 ± 348 nM. This molecule yielded a Ki at hCA XII (Ki (nM) hCA XII) of 69 ± 4.5 nM.

Molecule `NS(=O)(=O)c1cccc(N2C(=O)c3c(Cl)c(Cl)c(Cl)c(Cl)c3C2=O)c1` [Compound 9, 3-(4,5,6,7-tetrachloro-1,3-dioxoisoindolin-2-yl) benzenesulphonamide] gave a melting point of 308 °C. Moreover, the solubility in water entry in the series “Qualitative solubility” is recorded as “insoluble”. Also, the Ki at hCA IX (Ki (nM) hCA IX) was 498 ± 34 nM. On hCA XII (Ki (nM) hCA XII), this molecule gave a Ki of 316 ± 28 nM.

`NS(=O)(=O)c1ccc(N2C(=O)c3c(Cl)c(Cl)c(Cl)c(Cl)c3C2=O)c(Cl)c1` [Compound 12, 3-chloro-4-(4,5,6,7-tetrachloro-1,3-dioxoisoindolin-2-yl)benzenesulphonamide] registered a melting point of 303 °C. In addition, the solubility in water entry in the series “Qualitative solubility” is on record as “insoluble”. This molecule also had a Ki at hCA IX (Ki (nM) hCA IX) of 49 ± 0.4 nM. For the same molecule, affinity at hCA XII (Ki (nM) hCA XII) was put at a Ki of 22 ± 1.7 nM.

As to `NS(=O)(=O)c1ccc(N2C(=O)c3cccc4c(S(=O)(=O)O)ccc(c34)C2=O)cc1` (as salt: potassium) [Compound 1, 4-(4-sulfo-1,8-napthalic-1,3-dioxopyridine) potassium benzenesulphonamide], the melting point stood at 277 °C.

`NS(=O)(=O)c1ccc(N2C(=O)c3c(Cl)c(Cl)c(Cl)c(Cl)c3C2=O)c(Br)c1` [Compound 13, 3-bromo-4-(4,5,6,7-tetrachloro-1,3-dioxoisoindolin-2-yl) benzenesulphonamide]: the melting point is 265 °C. Further, in the series “Qualitative solubility”, the solubility in water entry is “insoluble”. In addition, the Ki at hCA IX (Ki (nM) hCA IX) was 40 ± 1.5 nM. The inhibitory constant (Ki) at hCA XII (Ki (nM) hCA XII) came out at 99 ± 3.5 nM.

As to `NS(=O)(=O)c1ccc(N2C(=O)c3ccc([N+](=O)[O-])cc3C2=O)c(F)c1` [Compound 5, 3-fluoro-4-(5-nitro-1,3-dioxoisoindolin-2-yl) benzenesulphonamide], the melting point was determined as 232 °C. Also, the affinity at hCA II (setting [1]) corresponds to a Ki of 4.6 ± 0.3 nM. Besides, in the series “Qualitative solubility”, the solubility in water result was “insoluble”. Moreover, at hCA I, the Ki came out at 400 ± 31 nM. The Ki at hCA IX (Ki (nM) hCA IX) was determined as 4900 ± 300 nM. On hCA XII (Ki (nM) hCA XII), this molecule returned a Ki of 75 ± 4 nM. In addition, on hCA XII, the “Selectivity Ratio B = hCA II/XII” value was 0.061.

Turning to `NS(=O)(=O)c1ccc(N2C(=O)c3c(Cl)c(Cl)c(Cl)c(Cl)c3C2=O)cc1` [Compound 6, 4-(4,5,6,7-tetrachloro-1,3-dioxoisoindolin-2-yl) benzenesulphonamide], the solubility in water result in “Qualitative solubility” is reported as “insoluble”.

In the case of `NS(=O)(=O)c1ccc(CN2C(=O)c3c(Cl)c(Cl)c(Cl)c(Cl)c3C2=O)cc1` [Compound 7, 4-((4,5,6,7-Tetrachloro-1,3-dioxoisoindolin-2-yl) Methyl) Benzenesulphonamide], in the series “Qualitative solubility”, the solubility in water entry is reported as “insoluble”. At hCA IX (Ki (nM) hCA IX), the Ki was 103 ± 5 nM.

Turning to `NS(=O)(=O)c1ccc2sc(N3C(=O)c4c(Cl)c(Cl)c(Cl)c(Cl)c4C3=O)nc2c1` [Compound 3, 2-(4,5,6,7-tetrachloro-1,3-dioxoisoindolin-2-yl) benzo[d]thiazole-5-sulphonamide], the melting point was 302.2 °C. The solubility in water result in “Qualitative solubility” is “fully soluble”. At hCA I, this molecule had a Ki of 258 ± 12 nM. For the same molecule, on hCA IX (Ki (nM) hCA IX), the affinity, expressed as Ki, was 933 ± 56 nM. The “Selectivity Ratio A = hCA II/IX” value on hCA IX amounted to 0.795. Also, at hCA XII (Ki (nM) hCA XII), the Ki amounted to 80 ± 7 nM.

For `NS(=O)(=O)c1ccc(N2C(=O)c3cccc4c(S(=O)(=O)O)ccc(c34)C2=O)cc1` [Compound 1, 4-(4-sulfo-1,8-napthalic-1,3-dioxopyridine) potassium benzenesulphonamide], the Ki at hCA II (read-out: Ki (nM) hCA II, mean ± standard error, three assays) was determined as 13 ± 0.9 nM; at hCA I (read-out: Ki (nM) hCA I, stopped-flow CO2 hydration, mean ± standard error, three assays), 49 ± 3.2 nM; at hCA IX (read-out: Ki (nM) hCA IX), 7770 ± 145 nM. The solubility in water entry in the series “Qualitative solubility” is “fully soluble”.

As for `NS(=O)(=O)c1ccc2sc(N3C(=O)c4c(Br)c(Br)c(Br)c(Br)c4C3=O)nc2c1` [Compound 4, 2-(4,5,6,7-Tetrabromo-1,3-dioxoisoindolin-2-yl) Benzo[d]Thiazole-5-Sulphonamide], the inhibitory constant (Ki) on hCA II (setting [1]) was 44 ± 1.9 nM; at hCA I, 463 ± 29 nM; on hCA IX (Ki (nM) hCA IX), 4030 ± 237 nM; at hCA XII (Ki (nM) hCA XII) it was 87 ± 6 nM. Moreover, the solubility in water entry in “Qualitative solubility” is listed as “insoluble”. For the same molecule, the “Selectivity Ratio A = hCA II/IX” value on hCA IX amounted to 0.011. Also, the “Selectivity Ratio B = hCA II/XII” value at hCA XII is given as 0.506.

Consider `NS(=O)(=O)c1ccc(S(=O)(=O)Nc2cccc3c(Cl)c[nH]c23)cc1` [IND, Indisulam, reference compound], for which, at hCA XII (read-out: Ki (nM) hCA XII), the inhibitory constant (Ki) came to 3.4 ± 0.2 nM.

Regarding `NS(=O)(=O)c1ccc(CCN2C(=O)c3c(Cl)c(Cl)c(Cl)c(Cl)c3C2=O)cc1` [Compound 8, 4-(2-(4,5,6,7-tetrachloro-1,3-dioxoisoindolin-2-yl)ethyl)benzenesulphonamide], the melting point was found to be 286 °C. Besides, in “Qualitative solubility”, the solubility in water entry is reported as “insoluble”. The molecule further yielded a Ki at hCA XII (Ki (nM) hCA XII) of 226 ± 13 nM.

`NS(=O)(=O)c1ccccc1N1C(=O)c2c(Cl)c(Cl)c(Cl)c(Cl)c2C1=O` [Compound 10, 2-(4,5,6,7-tetrachloro-1,3-dioxoisoindolin-2-yl) benzenesulphonamide] showed a melting point of 313 °C. Moreover, the solubility in water entry in “Qualitative solubility” is listed as “insoluble”. On hCA IX (Ki (nM) hCA IX), this molecule showed a Ki of 559 ± 26 nM. The molecule also yielded an inhibition constant Ki on hCA XII (Ki (nM) hCA XII) of 309 ± 24 nM.
